Measured values as given in patent EP0783890A1, “Use of 2-methyl-4-(4-methyl-1-piperazinyl)-10H-thieno(2,3-b)(1,5)benzodiazepine for the treatment of fungal dermatitis” (ELI LILLY AND COMPANY, priority 1995, dated 1997).

Key:
[1] = tested on: apomorphine-induced hypothermia; settings: mice; cited from earlier work
[2] = detection of radiolabelled compound in saliva; assay type: in vivo
Experimental: For example, in the treatment of adult humans, dosages of from about 5 to 20 mg per day may be used. A once a day dosage is normally sufficient, although divided doses may be administered. For treatment of fungal dermatitis in a human, a dose range of from about […], preferably 5 to 20 mg per day is suitable.

[3] = tested on: apomorphine-induced climbing behavior; settings: mice; cited from earlier work
5-HT1C receptor = biological target: T1, 5-HT1C receptor (Homo sapiens, UniProt P28335); settings: in vitro; cited from earlier work
T1 sequence (P28335 33-458): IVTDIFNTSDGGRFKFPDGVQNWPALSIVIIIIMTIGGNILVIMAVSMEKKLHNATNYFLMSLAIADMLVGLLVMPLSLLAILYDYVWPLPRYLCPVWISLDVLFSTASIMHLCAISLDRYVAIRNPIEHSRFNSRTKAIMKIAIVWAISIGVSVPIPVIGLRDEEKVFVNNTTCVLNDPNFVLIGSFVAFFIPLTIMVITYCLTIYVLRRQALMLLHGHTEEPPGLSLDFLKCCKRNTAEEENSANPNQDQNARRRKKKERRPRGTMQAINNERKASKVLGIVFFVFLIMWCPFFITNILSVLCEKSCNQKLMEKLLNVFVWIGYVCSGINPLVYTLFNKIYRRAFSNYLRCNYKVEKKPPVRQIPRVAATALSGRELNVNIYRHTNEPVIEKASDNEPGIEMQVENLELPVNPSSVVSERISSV

[4] = tested on: conditioned avoidance response; settings: rats; cited from earlier work
[5] = double-blind, randomized, placebo and haloperidol-controlled clinical trial: occurrence of fungal dermatitis; assay type: in vivo; settings: 15 +/-2.5 mg/day vs haloperidol (15 +/- 5 mg/day), double-blind extension treatment phase, human subjects
Experimental: Such effectiveness for the treatment, amelioration of fungal dermatitis was shown in the following clinical trial:
The study was a double-blind, randomized, parallel, placebo and haloperidol-controlled study of 55 human subjects. The study was conducted in 23 study centers throughout the United States and Canada. […] The acute phase lasted for 6 weeks with evaluations performed weekly followed by a double-blind extension phase of at least one year.

## Cc1cc2c(s1)Nc1ccccc1N=C2N1CCN(C)CC1 [2-methyl-4-(4-methyl-1-piperazinyl)-10H-thieno[2,3-b][1,5]benzodiazepine]
[1]
  apomorphine-induced hypothermia: antagonized
[2]
  detection in the saliva: can be detected in the saliva
[3]
  apomorphine-induced climbing behavior: antagonized
5-HT1C receptor
  activity at the 5-HT1C receptor: active
[4]
  conditioned avoidance response: inhibits
[5]
  occurrence of fungal dermatitis compared with haloperidol: statistically significantly less frequently
